Laboratory results: US10287259B2, “Selenazolidine and thiazolidine compounds for treating cancer and other diseases” (The Penn State Research Foundation, priority 2016, dated 2019)

Assays:
Type in all cases: cell-based
[1] = test system: NF-κB; assay: Electrophoretic mobility shift assay (EMSA); details: Panc-1, 6 h pretreatment, TNF-α 30 min
Description: To determine NF-κB activation, Panc-1 (1×10^6) cells were treated with different doses of AS-10 for 6 h. Thirty minutes before termination cells were stimulated with 100 ng/mL TNF-α (which is about 3.9 nM in media after addition). At the end of thirty minutes, cells were immediately stored on ice. Nuclear and cytosolic extracts were prepared as described previously (Pandey et al., 2007, J. Biol. Chem. 282: 17340-17350). Nuclear lysates were subjected to EMSA following the protocol (Pandey et al., 2007, J. Biol. Chem. 282: 17340-17350). The dried gels were exposed to X-ray films at −80° C. for exposure.

[2] = test system: different cancer cell types (breast, colorectal, lung, melanoma, ovarian, prostate); assay: MTT assay in different cancer cell lines; details: 24, 48 and 72 h
Description: (§1) MTT (3-(4,5-dimethylthiazol-2-yl)-2,5-diphenyltetrazolium) assay was performed to determine the effect of AS-10 on cancer cell viability (Plano et al., 2016, J. Med. Chem. 1946-1959; Alcolea et al., 2012, Eur. J. Med. Chem. 113:134-144; Kumar et al., 2014, Eur. J. Med. Chem. 81:267-276). Briefly, 3×10^3 cells were treated with different concentrations of AS-10 in triplicate in a 96-well plate for different time points. MTT solution (20 μL of 5.0 mg/mL solution) was added to each well, three hours prior to termination time point and incubated at 37° C. Resultant formazan crystals, at termination time point, were dissolved in 50 μL DMSO. The plate was subjected to a 96-well multiscanner (Dynex Technologies, MRX Revelation; Chantilly, Va., USA) for measuring the optical densities at 570 nm and 630 nm. IC50 values were determined by performing non-linear regression using Graphpad Prism software.

[3] = test system: LNCaP cells; assay: MTT cell viability test, LNCaP; details: Homo sapiens, time and concentration dependent, read-out: EC50, growth inhibition of LNCaP cells
Description: as §1

Question: Which results are given for `CC(=O)Oc1ccccc1C(=O)/N=C1\[Se]CCN1C(=O)c1ccccc1OC(C)=O` [AS-10, 2-((3-(2-acetoxybenzoyl)-1,3-selenazolidin-2-ylidene)carbamoyl)phenyl acetate]?
Answer: NF-κB DNA binding (EMSA band) [1]: NF-κB band faded away in a dose dependent manner; growth of different cancer cell types [2]: effectively inhibited growth; EC50 [3]: 1700 to 2500 nM
